Laboratory results: the NIST ThermoML archive (doi:10.1021/je900050z)

Details: Liquid

CCC(C)(C)O [2-methylbutan-2-ol]
Details | vapor or sublimation pressure [kPa]
303.29 K | 2.81
303.47 K | 2.85
304.67 K | 3.16
305.75 K | 3.4
305.9 K | 3.43
308.35 K | 4.08
309.12 K | 4.31
309.86 K | 4.55
310.61 K | 4.8
311.64 K | 5.15
312.47 K | 5.43
313.38 K | 5.77
314.17 K | 6.08
315.44 K | 6.59
317.09 K | 7.31
318.64 K | 7.99
319.37 K | 8.36
319.86 K | 8.61
320.32 K | 8.84
321.32 K | 9.36
322.44 K | 9.99
323.15 K | 10.41
323.27 K | 10.49
324.11 K | 11.03
324.91 K | 11.51
325.71 K | 12.03
326.45 K | 12.55
327.18 K | 13.05
327.62 K | 13.36
328.41 K | 13.97
329.33 K | 14.65
330.15 K | 15.31
330.98 K | 15.97
331.8 K | 16.67
332.46 K | 17.29
333.15 K | 17.87
333.26 K | 17.99
333.99 K | 18.65
334.69 K | 19.32
335.45 K | 20.03
336.05 K | 20.67
336.68 K | 21.31
337.31 K | 21.96
337.97 K | 22.63
338.69 K | 23.47
339.15 K | 23.97
339.68 K | 24.67
340.31 K | 25.35
340.83 K | 26
341.39 K | 26.67
341.9 K | 27.33
342.4 K | 27.97
342.92 K | 28.67
343.15 K | 28.95
343.42 K | 29.31
343.94 K | 30.01
344.47 K | 30.67
344.91 K | 31.35
345.39 K | 32.07
345.78 K | 32.67
346.35 K | 33.48
347.18 K | 34.67
347.57 K | 35.32
348.07 K | 36.07
348.49 K | 36.71
348.88 K | 37.36
349.27 K | 38.01
349.64 K | 38.64
350.08 K | 39.32
350.49 K | 39.96
350.83 K | 40.64
351.2 K | 41.31
351.67 K | 42.08
351.95 K | 42.65
352.3 K | 43.35
352.73 K | 44
353.02 K | 44.65
353.15 K | 44.87
353.44 K | 45.35
353.73 K | 45.97
354.1 K | 46.63
354.41 K | 47.28
354.72 K | 47.95
355.11 K | 48.65
355.43 K | 49.31
355.74 K | 49.95
356.09 K | 50.75
356.45 K | 51.36
356.69 K | 52
356.99 K | 52.61
357.35 K | 53.32
357.67 K | 54.03
357.96 K | 54.67
358.25 K | 55.35
358.47 K | 55.95
358.85 K | 56.63
359.15 K | 57.33
359.48 K | 58
359.68 K | 58.59
360.01 K | 59.27
360.21 K | 59.95
360.53 K | 60.59
360.83 K | 61.27
361.11 K | 61.99
361.4 K | 62.61
361.72 K | 63.35
362.01 K | 64.04
362.24 K | 64.67
362.54 K | 65.35
362.84 K | 66
363.07 K | 66.71
363.56 K | 67.92
364.15 K | 69.21
364.62 K | 70.64
365.21 K | 71.99
365.73 K | 73.37
366.16 K | 74.75
366.67 K | 76.05
367.11 K | 77.28
367.53 K | 78.63
368.02 K | 79.97
368.44 K | 81.28
368.83 K | 82.53
369.31 K | 83.93
369.73 K | 85.28
370.15 K | 86.63
370.56 K | 87.97
370.99 K | 89.39
371.39 K | 90.76
371.77 K | 91.99
372.16 K | 93.31
372.56 K | 94.67
372.95 K | 95.99
373.34 K | 97.39
373.73 K | 98.71
